This is an account of results in ChEMBL document CHEMBL1152268, “Discovery and SAR of novel 4-thiazolyl-2-phenylaminopyrimidines as potent inhibitors of spleen tyrosine kinase (SYK)” (Bioorg Med Chem Lett, 2008).

In data set [1] the target is Tyrosine-protein kinase SYK (Homo sapiens, UniProt P43405).
Data set [2] concerns the target Proto-oncogene tyrosine-protein kinase Src (Homo sapiens, UniProt P12931). As to the kind of experiment: Inhibition of SRC.
Data set [3] deals with T1, Tyrosine-protein kinase ZAP-70 (Homo sapiens, UniProt P43403).
T1 sequence (P43403 whole entry): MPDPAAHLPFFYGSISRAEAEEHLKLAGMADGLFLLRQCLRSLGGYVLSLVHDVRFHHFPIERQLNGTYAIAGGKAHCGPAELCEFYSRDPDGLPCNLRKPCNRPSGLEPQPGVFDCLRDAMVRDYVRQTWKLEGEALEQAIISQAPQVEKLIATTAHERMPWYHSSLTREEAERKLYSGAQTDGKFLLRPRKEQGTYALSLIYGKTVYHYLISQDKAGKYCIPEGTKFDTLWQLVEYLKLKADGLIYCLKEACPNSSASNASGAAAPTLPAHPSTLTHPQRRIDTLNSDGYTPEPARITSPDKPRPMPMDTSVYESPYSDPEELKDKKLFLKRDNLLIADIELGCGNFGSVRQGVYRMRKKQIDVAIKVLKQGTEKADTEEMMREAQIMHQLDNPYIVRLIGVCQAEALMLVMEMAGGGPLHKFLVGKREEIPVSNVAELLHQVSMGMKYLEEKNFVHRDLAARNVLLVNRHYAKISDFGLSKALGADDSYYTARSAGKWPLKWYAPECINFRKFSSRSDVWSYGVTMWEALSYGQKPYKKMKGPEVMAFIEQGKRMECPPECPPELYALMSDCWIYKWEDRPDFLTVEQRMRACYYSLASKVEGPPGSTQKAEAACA
As to the kind of experiment: (§1) Inhibition of ZAP70.

The nature of data set [4]: (§2) Metabolic stability in rat liver microsomes after 30 mins. The format is ADME, Microsome. The following applies: liver microsomes, read-out: Stability.
Data set [5] concerns the target Cyclin-dependent kinase 2 (Homo sapiens, UniProt P24941). As to the kind of experiment: Inhibition of CDK2.
A further data set relates to Liver microsomes. The description is as §2. The format is ADME, Microsome. The following applies: microsomes, 0.5 h.
Data set [6] concerns the target T2, Tyrosine-protein kinase ZAP-70 (Homo sapiens) (UniProt P43403).
T2 sequence (whole entry): T1 sequence (P43403 whole entry)
The description is as §1.

The source made the active and inactive calls. No cut-off for these calls is given here. A value given as a limit tells only on which side of the number the result lay.

Sequence of Proto-oncogene tyrosine-protein kinase Src (P12931 2-536 limits assumed): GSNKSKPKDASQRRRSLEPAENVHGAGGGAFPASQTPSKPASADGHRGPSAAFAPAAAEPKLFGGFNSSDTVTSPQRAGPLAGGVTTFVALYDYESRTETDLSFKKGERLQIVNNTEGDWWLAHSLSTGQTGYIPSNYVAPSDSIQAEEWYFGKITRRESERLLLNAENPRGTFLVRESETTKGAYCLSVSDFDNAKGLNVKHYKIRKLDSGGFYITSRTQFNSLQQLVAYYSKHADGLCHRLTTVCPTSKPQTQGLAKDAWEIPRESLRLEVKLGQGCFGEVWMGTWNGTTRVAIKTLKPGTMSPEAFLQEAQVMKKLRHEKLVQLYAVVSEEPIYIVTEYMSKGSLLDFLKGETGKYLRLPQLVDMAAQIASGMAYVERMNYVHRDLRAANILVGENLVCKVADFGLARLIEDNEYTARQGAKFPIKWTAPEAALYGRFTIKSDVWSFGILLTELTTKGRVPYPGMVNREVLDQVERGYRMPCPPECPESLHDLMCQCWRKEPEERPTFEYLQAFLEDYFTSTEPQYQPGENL

With `COc1cc(Nc2nccc(-c3nccs3)n2)cc(OC)c1`, the inhibition constant (Ki) in data set [1] is 14 nM; in data set [2] it was 862 nM; in data set [3], 318 nM; in data set [5], above 5000 nM. Also, in data set [4], the remaining at 0.5 h came out at 12%.

As to `Cc1cc(C)cc(Nc2nccc(-c3nc(C)cs3)n2)c1`, the Ki in data set [1] was found to be 56 nM; in data set [2], 2030 nM; in data set [3], 1030 nM; in data set [5], 100 nM. This molecule also came in with an Activity with Liver microsomes of 5%.

Take `Oc1cc(Nc2nccc(-c3nccs3)n2)cc(C(F)(F)F)c1`: the Ki in data set [1] was 44 nM; in data set [2], 991 nM; in data set [3] it was 754 nM; in data set [5], 1650 nM. In addition, in data set [4], the remaining at 0.5 h was 24%.

As to `Cc1cc(Nc2nccc(-c3nc(CO)cs3)n2)cc(C(F)(F)F)c1`, the Ki in data set [1] came out at 10 nM; in data set [2] it was 1800 nM; in data set [3], 750 nM; in data set [5] it was 1500 nM. The remaining at 0.5 h in data set [4] was determined as 64%.

Turning to `Cc1cccc(Nc2nccc(-c3nccs3)n2)c1`, the Ki in data set [1] came to 82 nM; in data set [2], 2980 nM; in data set [3] it was 1550 nM; in data set [5], 2450 nM. For the same molecule, the Activity result with Liver microsomes was “Not Active”.

With `Cc1cc(C)cc(Nc2nccc(-c3ncc(C)s3)n2)c1`, the Ki was 23 nM in data set [1], 348 nM in data set [2], 410 nM in data set [3] and 1100 nM in data set [5]. The molecule also gave an Activity in the data set with Liver microsomes of 15%.

For the molecule `Cc1cc(Nc2nccc(-c3nccs3)n2)cc(C(F)(F)F)c1`, the Ki in data set [1] was 110 nM; in data set [2], 1360 nM; in data set [3], 891 nM; in data set [5], above 5000 nM. In addition, in the data set on Liver microsomes, the Activity entry is “Not Active”.

As for `COc1cc(Nc2nccc(-c3ncc(C)s3)n2)cc(C(F)(F)F)c1`, the Ki in data set [1] was 23 nM; in data set [2], 3700 nM; in data set [3], 1140 nM; in data set [5] it was above 2500 nM. In the data set on Liver microsomes, the Activity result was “Not Active”.

Consider `COc1cc(Nc2nccc(-c3nc(CO)cs3)n2)cc(C(F)(F)F)c1`, for which the Ki in data set [1] was 33 nM; in data set [2], 3500 nM; in data set [3], 1000 nM; in data set [5], above 2500 nM. In addition, the Activity result in the data set on Liver microsomes was “Not Active”.

Regarding `COc1cc(Nc2nccc(-c3nccs3)n2)cc(C(F)(F)F)c1`, the Ki is 28 nM in data set [1], 1830 nM in data set [2], 2150 nM in data set [3] and above 5000 nM in data set [5]. Moreover, the remaining at 0.5 h in data set [4] is 54%.

For `Cc1cc(C)cc(Nc2nccc(-c3nc(C)c(C(=O)N[C@H](C)CO)s3)n2)c1`, the Ki in data set [1] is 210 nM; in data set [2], above 3330 nM; in data set [3] it was 1500 nM; in data set [5], above 3330 nM.

In the case of `Cc1cc(Nc2nccc(-c3nc(C)c(CCO)s3)n2)cc(C(F)(F)F)c1`, the Ki in data set [1] was 22 nM; in data set [2], 3500 nM; in data set [3], 3500 nM; in data set [5], above 2500 nM. In addition, the remaining at 0.5 h in data set [4] turned out to be 80%.

Turning to `NCCCNc1nc(-c2ccc(N3CCOCC3)cc2)cc2ccccc12`, the IC50 in data set [1] turned out to be 8 nM.

For the molecule `OCCCOc1cc(Nc2nccc(-c3nccs3)n2)cc(C(F)(F)F)c1`, the Ki in data set [1] was 26 nM; in data set [2], 422 nM; in data set [3], 677 nM; in data set [5], above 5000 nM. The remaining at 0.5 h in data set [4] was 68%.

For `Cc1ccc(C)c(Nc2nccc(-c3nccs3)n2)c1`, the outcome was inactive. Further, the Ki in data set [1] amounted to 1820 nM. Also, the Ki in data set [2] amounted to 153 nM. Besides, the outcome in data set [6] was inactive. Further, the Activity result in the data set on Liver microsomes is listed as “Not Active”. The same molecule yielded an inhibition constant (Ki) in data set [5] above 5000 nM.

For the molecule `Cc1cc(C)cc(Nc2nccc(-c3nc(C)c(C(=O)N[C@@H](C)CO)s3)n2)c1`, the Ki in data set [2] is above 3330 nM; in data set [3] it was 240 nM; in data set [5], above 3330 nM.

Regarding `Cc1cc(C)cc(Nc2nccc(-c3ncc(CO)s3)n2)c1`, the Ki is 4 nM in data set [1], 2000 nM in data set [2], 270 nM in data set [3] and above 2500 nM in data set [5]. Further, the remaining at 0.5 h in data set [4] came out at 37%.

In the case of `OCc1csc(-c2ccnc(Nc3cc(O)cc(C(F)(F)F)c3)n2)n1`, the Ki stood at 50 nM in data set [1], 4000 nM in data set [2], 680 nM in data set [3] and 1500 nM in data set [5]. In addition, in data set [4], the remaining at 0.5 h amounted to 50%.

Consider `Cc1cc(C)cc(Nc2nccc(-c3nccs3)n2)c1`, for which the Ki is 8 nM in data set [1], 1060 nM in data set [2], 419 nM in data set [3] and above 5000 nM in data set [5]. Further, the remaining at 0.5 h in data set [4] stood at 24%.

As for `c1ccc(Oc2cccc(Nc3nccc(-c4nccs4)n3)c2)cc1`, in data set [1], the Ki was 630 nM.

As for `Cc1cc(C)cc(Nc2nccc(-c3nc(C)c(CCO)s3)n2)c1`, the Ki in data set [1] turned out to be 32 nM; in data set [2], 3500 nM; in data set [3] it was 560 nM; in data set [5], 2270 nM. The remaining at 0.5 h in data set [4] was 65%.

As to `Cc1cc(C)cc(Nc2nccc(-c3nc(CO)cs3)n2)c1`, the Ki stood at 10 nM in data set [1], 2230 nM in data set [2], 450 nM in data set [3] and 2400 nM in data set [5]. Besides, the remaining at 0.5 h in data set [4] came out at 35%.
